Structures can show the parent of a compound that is named as a salt.
Key:
[1] = target: T1, 5-HT2 receptor (Rattus norvegicus, UniProt P14842); test: 5-HT2 receptor radioligand binding displacement assay ([3H]ketanserin, cerebral cortex); set-up: species or system rat (male Sprague-Dawley); settings: tritiated ketanserin 1 nM, pH 7.4, 37° C., 30 min, values over 100 nM accumulated before concentration range was reduced to 0.1 to 100 nM
T1 construct: The reaction was initiated by the addition of the resuspended rat cerebral cortex tissue; tissue Harlan Industries, Cumberland, Ind; (animals); host or cells: cerebral cortex of male Sprague-Dawley rats, washed membranes
T1 sequence (P14842 whole entry): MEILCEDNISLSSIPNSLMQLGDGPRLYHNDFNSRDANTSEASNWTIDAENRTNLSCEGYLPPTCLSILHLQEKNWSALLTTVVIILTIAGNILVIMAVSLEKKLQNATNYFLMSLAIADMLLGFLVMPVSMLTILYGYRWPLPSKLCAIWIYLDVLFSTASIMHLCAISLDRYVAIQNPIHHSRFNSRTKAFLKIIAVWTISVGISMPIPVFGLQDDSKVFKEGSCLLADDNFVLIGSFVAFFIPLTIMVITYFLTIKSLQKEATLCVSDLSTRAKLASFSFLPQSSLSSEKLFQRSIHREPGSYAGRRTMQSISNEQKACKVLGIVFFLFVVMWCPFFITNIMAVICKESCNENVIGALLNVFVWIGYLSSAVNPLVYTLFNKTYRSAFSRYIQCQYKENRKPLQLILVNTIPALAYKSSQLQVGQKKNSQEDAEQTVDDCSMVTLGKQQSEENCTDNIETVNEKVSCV
Experimental: The assays were conducted by the following procedures.
5-HT1c selective compounds can be identified using the following biological assay procedures. Compounds having a selective affinity for the 5-HT1c receptor have a low IC50 in the 5-HT1c receptor assay and a higher IC50 in the 5-HT2 receptor assay.
I. Biological Reagent Preparation.
Beef brain was removed immediately after slaughter, and choroid plexus were dissected over ice. Male Sprague-Dawley rats weighing 125-150 g (Harlan Industries, Cumberland, Ind.) were killed by decapitation. The brain of each was immediately removed and the cerebral cortex was dissected over ice. Tissues were homogenized in 9 volumes of 0.32 mol/L sucrose and centrifuged at 1,000×g for 10 minutes. The supernatant was centrifuged at 17,000×g for 20 minutes. The pellet was suspended in 100 volumes of 50 mM Tris-HCL (pH7.4), incubated at 37° C. for 10 minutes and centrifuged at 50,000×g for 10 minutes, and the process was repeated three times. The final pellets were frozen at -70° C. and used within 2 weeks. Pellets were rehydrated with physiological buffer prior to use.
Radioligand binding assays for 5-HT1c and 5-HT2 receptors were conducted according to described methods. The assays can be conducted as described by Hoyer D., Functional correlates of serotonin 5-HT1 recognition sites, J. Receptor Res 8, 59-81 (1988) and Hoyer D., Engel G., Kalkman HO Molecular pharmacology of 5-HT1 and 5-HT2 recognition sires in rat and pig brain membranes: Radio-ligand binding studies with [^3 H]5-HT, [^3 H]8-OH-DPAT, (-) [^125 I] iodocyanopindolol, [^3 H]mesulergine and [^3 H]ketanserin, Eur. J. Pharmacol. 118, 13-23 (1985).
For 5-HT2 receptor assays increasing concentrations of experimental compound, 50 mM Tris HCl buffer pH [7.4], and tritiated ketanserin (1 nM) (^3 H ligand) were combined in polystyrene tubes at room temperature. The reaction was initiated by the addition of the resuspended rat cerebral cortex tissue which had been preincubated at 37° C. for 20 minutes. The reaction mixture was incubated in a 37° C. water bath for 30 minutes.
The above assays were modified after a number of compounds had been screened to accomodate the unexpectedly high potency of the compounds of this invention in the 5-HT1c assay. The concentration range of the experimental compound in the assays was changed from [0.1 to 1000 (nM)] to [0.1 to 100 (nM)] to optimize the use of reagents and analysis time.
The reactions were terminated by rapid filtration, (Brandel Cell Harvestor), through Whatman GF/B glass filters that had been presoaked in Tris buffer pH [7.4]. The filters were then washed 2 times with 5 ml of ice cold Tris buffer pH [7.4]. Washed filters were placed in scintillation vials and 10 ml RedySolv, (Brandel), was added and samples were counted in a Searle D-300 beta counter. Means and standard error statistics were calculated for triplicate experimental determinations in certain cases. Mean values were obtained from three or more separate determinations. The incubation time for the reaction mixture was […] at 37° C.
The results of the evaluation of certain compounds of the present invention in the 5-HT1c and 5-HT2 binding assays are set forth below in Table II.

[2] = target: T2, 5-HT1c receptor (Bos taurus, UniProt A0AAA9SBU1); test: 5-HT1c receptor radioligand binding displacement assay ([3H]mesulergine, choroid plexus); set-up: species or system beef; settings: beef choroid plexus; tritiated mesulergine 2.0 nM; pH 7.4; 37° C., 15 min
T2 construct: natural pool of RNA-edited forms
T2 sequence (A0AAA9SBU1 33-457): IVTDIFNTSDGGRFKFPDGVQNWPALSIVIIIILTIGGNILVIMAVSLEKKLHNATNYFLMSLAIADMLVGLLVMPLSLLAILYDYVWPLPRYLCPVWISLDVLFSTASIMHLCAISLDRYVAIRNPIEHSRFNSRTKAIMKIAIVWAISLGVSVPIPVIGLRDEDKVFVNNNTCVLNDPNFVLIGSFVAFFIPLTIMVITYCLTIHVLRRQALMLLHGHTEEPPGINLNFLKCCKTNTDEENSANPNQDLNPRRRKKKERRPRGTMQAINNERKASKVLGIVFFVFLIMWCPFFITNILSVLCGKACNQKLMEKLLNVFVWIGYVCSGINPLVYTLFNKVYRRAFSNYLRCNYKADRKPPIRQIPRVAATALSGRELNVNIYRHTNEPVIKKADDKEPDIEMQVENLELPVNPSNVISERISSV
Experimental: (§1) Beef brain was removed immediately after slaughter, and choroid plexus were dissected over ice. […] The brain of each was immediately removed and the cerebral cortex was dissected over ice. Tissues were homogenized in 9 volumes of 0.32 mol/L sucrose and centrifuged at 1,000×g for 10 minutes. The supernatant was centrifuged at 17,000×g for 20 minutes. The pellet was suspended in 100 volumes of 50 mM Tris-HCL (pH7.4), incubated at 37° C. for 10 minutes and centrifuged at 50,000×g for 10 minutes, and the process was repeated three times. The final pellets were frozen at -70° C. and used within 2 weeks. Pellets were rehydrated with physiological buffer prior to use.
(§2) For 5-HT1c receptor assays increasing concentrations of experimental compound, 50 mM Tris HCl buffer pH[7.4], and tritiated mesulergine (2.0 nM) (^3 H ligand) were combined in polystyrene tubes at room temperature. The reaction was initiated by the addition of the resuspended choroid plexus tissue which had been preincubated at 37° C. for 20 minutes. The reaction mixture was incubated in a 37° C. water bath for 15 minutes.
(§3) The reactions were terminated by rapid filtration, (Brandel Cell Harvestor), through Whatman GF/B glass filters that had been presoaked in Tris buffer pH [7.4]. The filters were then washed 2 times with 5 ml of ice cold Tris buffer pH [7.4]. Washed filters were placed in scintillation vials and 10 ml RedySolv, (Brandel), was added and samples were counted in a Searle D-300 beta counter. Means and standard error statistics were calculated for triplicate experimental determinations in certain cases. Mean values were obtained from three or more separate determinations. The incubation time for the reaction mixture was 15 minutes at 37° C.

[3] = test system: 5-HT1c receptor; test: as above; set-up: species or system beef; settings: 5-HT1c versus 5-HT2, from Table II
Experimental: as §1, §2, §3

Compound	IC50 [1] [nM]	IC50 [2] [nM]	5-HT1c selectivity (low IC50 in 5-HT1c assay, higher IC50 in 5-HT2 assay) [3]
CC(C)(C)c1ccc2[nH]c3c(c2c1)CCNC3Cc1cccc2ccccc12 (racemic) [Example 15, (±) 6-(1,1-dimethylethyl)-1,2,3,4-tetrahydro-1-(1-naphthalenylmethyl)-9H-pyrido[3,4b]indole]	> 100	11	particularly 5-HT1c selective
Brc1ccc2[nH]c3c(c2c1)CCNC3Cc1cccc2ccccc12 (racemic) [Example 9, (±) 6-bromo-1-(1-naphthalenylmethyl)-1,2,3,4-tetrahydro-9H-pyrido[3,4-b]indole]	87	27	–
Cc1ccc2c(c1)c1c(n2C)C(Cc2cccc3ccccc23)NCC1 (racemic) [Example 17, (±) 6,9-dimethyl-1,2,3,4-tetrahydro-1-(1-naphthalenylmethyl)-9H-pyrido[3,4-b]indole hydrochloride]	> 100	23	–
COc1ccc(CC2NCCc3c2[nH]c2ccc(C)cc32)c2ccccc12 (racemic) [Example 1, (±) 6-methyl-1-(1-(4-methoxynaphthalenyl)methyl)-1,2,3,4-tetrahydro-9H-pyrido[3,4-b]indole hydrochloride]	56.1	6.4	–
Cc1ccc2[nH]c3c(c2c1)CCNC3C(C)c1cccc2ccccc12 (racemic) [Example 3, (±) 6-methyl-1-(1-naphthalenyl-1-ethyl)-1,2,3,4-tetrahydro-9H-pyrido[3,4-b]indole]	> 100	6	–
Brc1cccc2c3c([nH]c12)C(Cc1cccc2ccccc12)NCC3 (racemic) [Example 6, (±) 8-bromo-1-(1-naphthalenylmethyl)-1,2,3,4-tetrahydro-9H-pyrido[3,4-b]indolehydrochloride]	40	13.2	–
Cc1ccc2[nH]c3c(c2c1F)CCNC3Cc1cccc2ccccc12 (racemic) [Example 13, (±) 5-fluoro-6-methyl-1-(1-naphthalenylmethyl)-1,2,3,4-tetrahydro-9H-pyrido[3,4-b]indole]	> 100	16	–
Cc1ccc2[nH]c3c(c2c1)CCNC3Cc1cccc2ccccc12 (racemic) [Example 5, (±) 6-methyl-1-(1-naphthalenylmethyl)-1,2,3,4-tetrahydro-9H-pyrido[3,4-b]indole hydrochloride]	267	30	–
CC(C)c1ccc2[nH]c3c(c2c1)CCNC3Cc1cccc2ccccc12 (racemic) [Example 16, (±) 6-(1-methylethyl)-1,2,3,4-tetrahydro-1-(1-naphthalenylmethyl)-9H-pyrido[3,4b]indole]	> 100	9	particularly 5-HT1c selective
c1ccc2c(CC3NCCc4c3[nH]c3c4ccc4ccccc43)cccc2c1 (racemic) [Example 14, (±) 7,8,9,10-tetrahydro-10-(1-naphthalenylmethyl)-11H-benzo[g]pyrido[3,4-b]indole]	> 100	61	–
Cc1ccc2c3c([nH]c2c1Br)C(Cc1cccc2ccccc12)NCC3 (racemic) [Example 10, (±) 7-methyl-8-bromo-1-(1-naphthalenylmethyl)-1,2,3,4-tetrahydro-9H-pyrido[3,4-b]indole hydrochloride]	142	44	–
Cc1ccc2[nH]c3c(c2c1)CCN(C)C3Cc1cccc2ccccc12 (racemic) [Example 12, (±) 2,6-dimethyl-1-(1-naphthalenylmethyl)-1,2,3,4-tetrahydro-9H-pyrido[3,4-b]indole hydrochloride]	> 100	54	–
Cc1cc(Br)c2[nH]c3c(c2c1)CCNC3Cc1cccc2ccccc12 (racemic) [Example 7, (±) 6-methyl-8-bromo-1-(1-naphthalenylmethyl)-1,2,3,4-tetrahydro-9H-pyrido[3,4-b]indole]	247	60	–
Cc1ccc2[nH]c3c(c2c1)CCN[C@H]3Cc1cccc2ccccc12 [Example 18, (-)-(S)-6-methyl-1,2,3,4-tetrahydro-1-(1-naphthalenylmethyl)-9H-pyrido[3,4-b]indole hydrochloride]	108	< 100	–
c1ccc2c(CC3NCCc4c3[nH]c3ccc(C5CCCCC5)cc43)cccc2c1 (racemic) [Example 11, (±) 6-cyclohexyl-1-(1-naphthalenylmethyl)-1,2,3,4-tetrahydro-9H-pyrido[3,4-b]indole hydrochloride]	> 100	189	–
COc1cccc2c3c([nH]c12)C(Cc1cccc2ccccc12)NCC3 (racemic) [Example 8, (±) 8-methoxy-1-(1-naphthalenylmethyl)-1,2,3,4-tetrahydro-9H-pyrido[3,4-b]indole]	65	63	–
CC(C)c1ccc2[nH]c3c(c2c1)CCNC3C(C)c1cccc2ccccc12 (racemic) [Example 4, hydrochloride]	> 100	14	–

— US5538981A, “Tetrahydro-pyrido-indole” (Eli Lilly and Company, priority 1995, dated 1996)
